Test results published in patent US5837868A, “Process for preparation of chiral 3-amino-pyrrolidine and analogous bicyclic compounds” (Abbott Laboratories, priority 1997, dated 1998).
≈ marks a conversion by molar mass, not a printed value. Structures can show the parent of a compound that is named as a salt. Where two headings read alike, the source gives them in different places.

What was measured:
P. aeruginosa K799/WT = test: In vitro antibacterial activity, agar dilution MIC; assay type: cell-based; conditions: Pseudomonas aeruginosa
Method: (§1) Each plate was inoculated with 1:100 (or 1:10 for slow-growing strains, primarily Micrococcus and Streptococcus) dilutions of up to 32 different microorganisms, using a Steers replicator block calibrated to deliver approximately 10^4 colony forming units (CFUs). The inoculated plates were incubated at from about 35° C. to about 37° C. for approximately 20-24 hours. In addition, a control plate using BHI agar containing no test compound was prepared and incubated at the beginning and at the end of each test. The quinolone antibacterial ciprofloxacin was used as a control ("Cntl").
(§2) The MIC was defined as the lowest concentration of test compound yielding no growth (a slight haze or sparsely isolated colonies at the inoculum spot) as compared to the growth control containing no test compound.

M. luteus ATCC 4698 = test: In vitro antibacterial activity, agar dilution MIC; assay type: cell-based; conditions: Micrococcus luteus, ATCC4698
Method: as §1, §2

Staph. aureus 642A = test: In vitro antibacterial activity, agar dilution MIC; assay type: cell-based; conditions: Staphylococcus aureus
Method: as §1, §2

E. coli KNK 437 = test: In vitro antibacterial activity, agar dilution MIC; assay type: cell-based; conditions: Escherichia coli, KNK437
Method: as §1, §2

P. aeruginosa BMH 10 = test: In vitro antibacterial activity, agar dilution MIC; assay type: cell-based; conditions: Pseudomonas aeruginosa, BMH10
Method: as §1, §2

[1] = test system: Acinetob. calcoaceticus CMX 669; test: In vitro antibacterial activity, agar dilution MIC; assay type: cell-based
Method: as §1, §2

[2] = test system: Nocardia asteroides ATCC 9970; test: In vitro antibacterial activity, agar dilution MIC; assay type: cell-based; conditions: ATCC9970
Method: as §1, §2

M. luteus ATCC 9341 = test: In vitro antibacterial activity, agar dilution MIC; assay type: cell-based; conditions: Micrococcus luteus, ATCC9341
Method: as §1, §2

Candida albicans CCH 442 = test: In vitro antibacterial activity, agar dilution MIC; conditions: Candida albicans, CCH442
Method: as §1, §2

P. aeruginosa A5007 = test: In vitro antibacterial activity, agar dilution MIC; assay type: cell-based; conditions: Pseudomonas aeruginosa
Method: as §1, §2

Staph. aureus A5177 = test: In vitro antibacterial activity, agar dilution MIC; assay type: cell-based; conditions: Staphylococcus aureus
Method: as §1, §2

[3] = test system: Providencia stuartii CMX 640; test: In vitro antibacterial activity, agar dilution MIC; assay type: cell-based; conditions: CMX640
Method: as §1, §2

[4] = test system: Strep. pyogenes 2548 INDUC; test: microbe, parasite or virus in culture; assay type: cell-based; conditions: Streptococcus pyogenes, 2548INDUC
Method: as §1, §2

[5] = test system: Entero. faecium ATCC 8043; test: In vitro antibacterial activity, agar dilution MIC; assay type: cell-based; conditions: Enterococcus faecium, ATCC8043
Method: as §1, §2

[6] = test system: Strep. pyogenes 930 CONST; test: In vitro antibacterial activity, agar dilution MIC; assay type: cell-based; conditions: Streptococcus pyogenes
Method: as §1, §2

P. aeruginosa 5263 = test: microbe, parasite or virus in culture; conditions: Pseudomonas aeruginosa
Method: as §1, §2

E. coli SS = test: In vitro antibacterial activity, agar dilution MIC; assay type: cell-based; conditions: Escherichia coli
Method: as §1, §2

Strep. pyogenes EES61 = test: In vitro antibacterial activity, agar dilution MIC; assay type: cell-based; conditions: Streptococcus pyogenes
Method: as §1, §2

[7] = test system: Strep. agalactiae CMX 508; test: In vitro antibacterial activity, agar dilution MIC; assay type: cell-based; conditions: Streptococcus agalactiae, CMX508
Method: as §1, §2

Staph. aureus ATCC 6538P = test: In vitro antibacterial activity, agar dilution MIC; assay type: cell-based; conditions: Staphylococcus aureus, ATCC6538P
Method: as §1, §2

Myco. smegmatis ATCC 114 = test: In vitro antibacterial activity, agar dilution MIC; assay type: cell-based; conditions: Mycolicibacterium smegmatis, ATCC114
Method: as §1, §2

P. aeruginosa 2862 = test: In vitro antibacterial activity, agar dilution MIC; assay type: cell-based; conditions: Pseudomonas aeruginosa, 2862
Method: as §1, §2

[8] = test system: Staph. aureus 1775 Cipro. R.; test: In vitro antibacterial activity, agar dilution MIC; assay type: cell-based; conditions: Staphylococcus aureus
Method: as §1, §2

[9] = test system: Enter. aerogenes ATCC 13048; test: In vitro antibacterial activity, agar dilution MIC; assay type: cell-based; conditions: Klebsiella aerogenes, ATCC13048
Method: as §1, §2

E. coli DC-2 = test: In vitro antibacterial activity, agar dilution MIC; assay type: cell-based; conditions: Escherichia coli, DC2
Method: as §1, §2

P. aeruginosa K799/61 = test: In vitro antibacterial activity, agar dilution MIC; assay type: cell-based; conditions: Pseudomonas aeruginosa, K799/61
Method: as §1, §2

Staph. aureus CMX 553 = test: In vitro antibacterial activity, agar dilution MIC; assay type: cell-based; conditions: Staphylococcus aureus, CMX553
Method: as §1, §2

Staph. epidermidis 3519 = test: In vitro antibacterial activity, agar dilution MIC; assay type: cell-based; conditions: Staphylococcus epidermidis
Method: as §1, §2

Escherichia coli Juhl = test: In vitro antibacterial activity, agar dilution MIC; assay type: cell-based
Method: as §1, §2

Staph. aureus NCTC10649M = test: In vitro antibacterial activity, agar dilution MIC; assay type: cell-based; conditions: Staphylococcus aureus
Method: as §1, §2

[10] = test system: Klebs. pneumoniae ATCC 8045; test: In vitro antibacterial activity, agar dilution MIC; assay type: cell-based; conditions: Klebsiella pneumoniae, ATCC8045
Method: as §1, §2

Pseudomonas cepacia 296I = test: In vitro antibacterial activity, agar dilution MIC; assay type: cell-based; conditions: Burkholderia cepacia
Method: as §1, §2

E. coli H560 = test: In vitro antibacterial activity, agar dilution MIC; assay type: cell-based; conditions: Escherichia coli
Method: as §1, §2

Staph. aureus 5278 = test: In vitro antibacterial activity, agar dilution MIC; assay type: cell-based; conditions: Staphylococcus aureus
Method: as §1, §2

Strep. bovis A5169 = test: In vitro antibacterial activity, agar dilution MIC; assay type: cell-based; conditions: Streptococcus equinus
Method: as §1, §2

[11] = Nocardia asteroides ATCC 9970, BHI agar dilution, 20-24 hours, read-out: MIC
[12] = Providencia stuartii CMX 640, BHI agar dilution, 20-24 hours, read-out: MIC
[13] = Strep. agalactiae CMX 508, BHI agar dilution, 20-24 hours, read-out: MIC
[14] = Staph. aureus CMX 553, BHI agar dilution, 20-24 hours, read-out: MIC
[15] = Klebs. pneumoniae ATCC 8045, BHI agar dilution, 20-24 hours, read-out: MIC

Cc1c(N2C[C@@H]3CCCN[C@@H]3C2)c(F)cn2c(=O)c(C(=O)O)cc(C3CC3)c12 [Ex. 1, 1-cyclopropyl-8-(S,S-2,8-diaza-8-bicyclo[4.3.0]-nonyl)-7-fluoro-4H-9-methyl-4-oxo-quinolizine-3-carboxylic acid hydrochloride]
MIC (P. aeruginosa K799/WT; K799/WT): 0.2 µg/mL
MIC (M. luteus ATCC 4698): 0.1 µg/mL
MIC (Staph. aureus 642A; 642A): 0.02 µg/mL
MIC (E. coli KNK 437): 0.05 µg/mL
MIC (P. aeruginosa BMH 10): 0.1 µg/mL
MIC [1]: 0.02 µg/mL
MIC ([2]; Nocardia asteroides): 3.1 µg/mL
MIC (M. luteus ATCC 9341): 0.1 µg/mL
MIC (Candida albicans CCH 442): > 100 µg/mL
MIC (P. aeruginosa A5007; A5007): 0.2 µg/mL
MIC (Staph. aureus A5177; A5177): 0.02 µg/mL
MIC ([3]; Providencia stuartii): 0.39 µg/mL
MIC [4]: 0.02 µg/mL
MIC [5]: 0.1 µg/mL
MIC ([6]; 930CONST): 0.05 µg/mL
MIC (P. aeruginosa 5263): 3.1 µg/mL
MIC (E. coli SS): 0.002 µg/mL
MIC (Strep. pyogenes EES61; EES61): 0.05 µg/mL
MIC [7]: 0.05 µg/mL
MIC (Staph. aureus ATCC 6538P): 0.01 µg/mL
MIC (Myco. smegmatis ATCC 114): 0.02 µg/mL
MIC (P. aeruginosa 2862): 3.1 µg/mL
MIC [8]: 0.39 µg/mL
MIC [9]: 0.02 µg/mL
MIC (E. coli DC-2): 0.05 µg/mL
MIC (P. aeruginosa K799/61): 0.02 µg/mL
MIC (Staph. aureus CMX 553): 0.05 µg/mL
MIC (Staph. epidermidis 3519; 3519): 0.02 µg/mL
MIC (Escherichia coli Juhl; Escherichia coli): 0.005 µg/mL
MIC (Staph. aureus NCTC10649M; NCTC10649M): 0.01 µg/mL
MIC [10]: 0.01 µg/mL
MIC (Pseudomonas cepacia 296I; 296I): 0.78 µg/mL
MIC (E. coli H560; H560): 0.005 µg/mL
MIC (Staph. aureus 5278; 5278): 0.01 µg/mL
MIC (Strep. bovis A5169; A5169): 0.05 µg/mL

CC[C@H]1CN(c2c(F)cn3c(=O)c(C(=O)O)cc(C4CC4)c3c2C)C[C@H]1N (relative stereo) [Ex. 3, 8-(cis-3-amino-4-ethylpyrrolidin-1-yl)-1-cyclopropyl-7-fluoro-4H-9-methyl-4-oxo-quinolizine-3-carboxylic acid hydrochloride diastereomer A]
MIC (P. aeruginosa K799/WT; P. aeruginosa K799/WT, BHI agar dilution, 20-24 hours, read-out: MIC): 0.39 µg/mL
MIC (M. luteus ATCC 4698): 0.1 µg/mL
MIC (Staph. aureus 642A; Staph. aureus 642A, BHI agar dilution, 20-24 hours, read-out: MIC): 0.02 µg/mL
MIC (E. coli KNK 437; E. coli KNK 437, BHI agar dilution, 20-24 hours, read-out: MIC): 0.1 µg/mL
MIC (P. aeruginosa BMH 10; P. aeruginosa BMH 10, BHI agar dilution, 20-24 hours, read-out: MIC): 0.39 µg/mL
MIC ([1]; Acinetob. calcoaceticus CMX 669, BHI agar dilution, 20-24 hours, read-out: MIC): 0.02 µg/mL
MIC [2, 11]: 0.39 µg/mL
MIC (M. luteus ATCC 9341): 0.1 µg/mL
MIC (Candida albicans CCH 442): > 100 µg/mL
MIC (P. aeruginosa A5007; P. aeruginosa A5007, BHI agar dilution, 20-24 hours, read-out: MIC): 0.39 µg/mL
MIC (Staph. aureus A5177; Staph. aureus A5177, BHI agar dilution, 20-24 hours, read-out: MIC): 0.02 µg/mL
MIC [3, 12]: 0.78 µg/mL
MIC [4]: 0.05 µg/mL
MIC [5]: 0.1 µg/mL
MIC ([6]; 930CONST): 0.05 µg/mL
MIC (P. aeruginosa 5263): 3.1 µg/mL
MIC (E. coli SS; E. coli SS, BHI agar dilution, 20-24 hours, read-out: MIC): 0.002 µg/mL
MIC (Strep. pyogenes EES61; Strep. pyogenes EES61, BHI agar dilution, 20-24 hours, read-out: MIC): 0.1 µg/mL
MIC [7, 13]: 0.1 µg/mL
MIC (Staph. aureus ATCC 6538P; Staph. aureus ATCC 6538P, BHI agar dilution, 20-24 hours, read-out: MIC): 0.01 µg/mL
MIC (Myco. smegmatis ATCC 114; Myco. smegmatis ATCC 114, BHI agar dilution, 20-24 hours, read-out: MIC): 0.02 µg/mL
MIC (P. aeruginosa 2862): 3.1 µg/mL
MIC ([8]; Staph. aureus 1775 Cipro. R., BHI agar dilution, 20-24 hours, read-out: MIC): 0.78 µg/mL
MIC ([9]; Enter. aerogenes ATCC 13048, BHI agar dilution, 20-24 hours, read-out: MIC): 0.05 µg/mL
MIC (E. coli DC-2; E. coli DC-2, BHI agar dilution, 20-24 hours, read-out: MIC): 0.2 µg/mL
MIC (P. aeruginosa K799/61): 0.02 µg/mL
MIC (Staph. aureus CMX 553; [14]): 0.02 µg/mL
MIC (Staph. epidermidis 3519; Staph. epidermidis 3519, BHI agar dilution, 20-24 hours, read-out: MIC): 0.02 µg/mL
MIC (Escherichia coli Juhl; Escherichia coli Juhl, BHI agar dilution, 20-24 hours, read-out: MIC): 0.02 µg/mL
MIC (Staph. aureus NCTC10649M; Staph. aureus NCTC10649M, BHI agar dilution, 20-24 hours, read-out: MIC): 0.01 µg/mL
MIC [10, 15]: 0.02 µg/mL
MIC (Pseudomonas cepacia 296I; Pseudomonas cepacia 296I, BHI agar dilution, 20-24 hours, read-out: MIC): 0.78 µg/mL
MIC (E. coli H560; E. coli H560, BHI agar dilution, 20-24 hours, read-out: MIC): 0.01 µg/mL
MIC (Staph. aureus 5278; Staph. aureus 5278, BHI agar dilution, 20-24 hours, read-out: MIC): 0.02 µg/mL
MIC (Strep. bovis A5169; Strep. bovis A5169, BHI agar dilution, 20-24 hours, read-out: MIC): 0.1 µg/mL

O=C(O)c1cn(C2CC2)c2cc(N3CCNCC3)c(F)cc2c1=O [Control, ciprofloxacin, reference compound]
MIC (P. aeruginosa K799/WT; K799/WT): 0.1 µg/mL (≈ 0.302 µM)
MIC (M. luteus ATCC 4698): 1.56 µg/mL (≈ 4.71 µM)
MIC (Staph. aureus 642A; 642A): 0.39 µg/mL (≈ 1.18 µM)
MIC (E. coli KNK 437): 0.2 µg/mL (≈ 0.604 µM)
MIC (P. aeruginosa BMH 10): 0.1 µg/mL (≈ 0.302 µM)
MIC [1]: 0.39 µg/mL (≈ 1.18 µM)
MIC [2, 11]: 25 µg/mL (≈ 75.4 µM)
MIC (M. luteus ATCC 9341): 3.1 µg/mL (≈ 9.36 µM)
MIC (Candida albicans CCH 442): > 100 µg/mL
MIC (P. aeruginosa A5007; A5007): 0.2 µg/mL (≈ 0.604 µM)
MIC (Staph. aureus A5177; A5177): 0.39 µg/mL (≈ 1.18 µM)
MIC [3, 12]: 0.78 µg/mL (≈ 2.35 µM)
MIC [4]: 0.39 µg/mL (≈ 1.18 µM)
MIC ([5]; Entero. faecium ATCC 8043, BHI agar dilution, 20-24 hours, read-out: MIC): 0.78 µg/mL (≈ 2.35 µM)
MIC ([6]; Strep. pyogenes 930 CONST, BHI agar dilution, 20-24 hours, read-out: MIC): 0.78 µg/mL (≈ 2.35 µM)
MIC (P. aeruginosa 5263): 12.5 µg/mL (≈ 37.7 µM)
MIC (E. coli SS): 0.005 µg/mL (≈ 0.0151 µM)
MIC (Strep. pyogenes EES61; EES61): 0.39 µg/mL (≈ 1.18 µM)
MIC [7, 13]: 0.78 µg/mL (≈ 2.35 µM)
MIC (Staph. aureus ATCC 6538P): 0.05 µg/mL (≈ 0.151 µM)
MIC (Myco. smegmatis ATCC 114): 1.56 µg/mL (≈ 4.71 µM)
MIC (P. aeruginosa 2862): 12.5 µg/mL (≈ 37.7 µM)
MIC [8]: > 100 µg/mL
MIC [9]: 0.05 µg/mL (≈ 0.151 µM)
MIC (E. coli DC-2): 0.2 µg/mL (≈ 0.604 µM)
MIC (P. aeruginosa K799/61): 0.02 µg/mL (≈ 0.0604 µM)
MIC (Staph. aureus CMX 553; [14]): 0.78 µg/mL (≈ 2.35 µM)
MIC (Staph. epidermidis 3519; 3519): 0.39 µg/mL (≈ 1.18 µM)
MIC (Escherichia coli Juhl; Escherichia coli): 0.05 µg/mL (≈ 0.151 µM)
MIC (Staph. aureus NCTC10649M; NCTC10649M): 0.39 µg/mL (≈ 1.18 µM)
MIC [10, 15]: 0.01 µg/mL (≈ 0.0302 µM)
MIC (Pseudomonas cepacia 296I; 296I): 3.1 µg/mL (≈ 9.36 µM)
MIC (E. coli H560; H560): 0.01 µg/mL (≈ 0.0302 µM)
MIC (Staph. aureus 5278; 5278): 0.39 µg/mL (≈ 1.18 µM)
MIC (Strep. bovis A5169; A5169): 1.56 µg/mL (≈ 4.71 µM)
